Laboratory results published in publication PMC6862323, “Substitution of Arginine 120 in Human D-Amino Acid Oxidase Favors FAD-Binding and Nuclear Mistargeting” (Frontiers in Molecular Biosciences, 2019).
Read-outs that look alike come from different tables or passages of the source.

How the values were obtained:
[1] = molecular target: T1, R120L hDAAO variant (Homo sapiens, UniProt P14920, R120L); test: FAD and ligand binding by quenching of protein fluorescence, R120L hDAAO
T1 construct: His-tag (N); made in house; host or cells: E. coli BL21 (DE3) Star
T1 sequence (P14920 whole entry R120L): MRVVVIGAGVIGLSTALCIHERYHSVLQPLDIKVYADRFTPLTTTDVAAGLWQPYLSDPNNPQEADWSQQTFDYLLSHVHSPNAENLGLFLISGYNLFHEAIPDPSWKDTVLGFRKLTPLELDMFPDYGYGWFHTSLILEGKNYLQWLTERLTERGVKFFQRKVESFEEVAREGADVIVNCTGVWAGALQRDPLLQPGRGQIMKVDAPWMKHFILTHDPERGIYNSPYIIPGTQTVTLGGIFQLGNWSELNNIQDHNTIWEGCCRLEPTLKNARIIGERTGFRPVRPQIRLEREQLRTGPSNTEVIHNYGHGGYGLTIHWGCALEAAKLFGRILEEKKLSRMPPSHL
Experimental: (§1) Protein fluorescence spectra were recorded between 300 and 400 nm, with excitation at 280 nm using a Jasco FP-750 instrument (excitation slit of 10 nm; emission slit of 5 nm) in 10 mM potassium phosphate, pH 8.0, 1% (v/v) glycerol, 5 mM 2-mercaptoethanol, […]

[2] = molecular target: wild-type hDAAO; conditions: cited from earlier work
[3] = molecular target: T2, R120E hDAAO variant (Homo sapiens, UniProt P14920, R120E); test: FAD and ligand binding by quenching of protein fluorescence, R120E hDAAO
T2 construct: His-tag (N); made in house; host or cells: E. coli BL21 (DE3) Star
T2 sequence (P14920 whole entry R120E): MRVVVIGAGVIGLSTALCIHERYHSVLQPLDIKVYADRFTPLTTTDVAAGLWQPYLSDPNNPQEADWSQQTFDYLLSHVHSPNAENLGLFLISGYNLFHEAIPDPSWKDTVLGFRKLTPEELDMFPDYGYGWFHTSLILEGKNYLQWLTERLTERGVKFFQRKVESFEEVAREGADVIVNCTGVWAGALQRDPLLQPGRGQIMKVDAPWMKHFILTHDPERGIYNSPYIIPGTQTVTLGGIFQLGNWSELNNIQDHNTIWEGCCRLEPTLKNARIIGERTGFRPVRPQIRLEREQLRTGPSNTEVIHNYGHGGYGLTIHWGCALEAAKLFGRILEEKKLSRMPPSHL
Experimental: as §1

[4] = system: wild-type hDAAO; set-up: method as in Molla et al. (2006) and Murtas et al. (2017); conditions: air saturation, 25°C, pH 8.5, ref Molla et al. (2006) and Murtas et al. (2017), cited from earlier work; for Km: read-out: apparent Km
[5] = molecular target: T1, R120L hDAAO variant; test: Apparent kinetic parameters on D-amino acids (oxygen electrode), R120L hDAAO; assay type: biochemical; conditions: air saturation, 25°C, pH 8.5, 0.2 mM FAD
Experimental: (§2) The kinetic parameters were determined on different D-amino acids, employing increasing substrate concentrations (Molla et al., [2000], [2006]). The apparent kinetic parameters were calculated using the initial reaction rate according to a Michaelis–Menten equation using the Kaleidagraph software (Synergy Software, Reading, PA, USA).
(§3) The apparent kinetic parameters were calculated according to a Michaelis–Menten equation using the initial velocity values determined at increasing D-amino acid concentrations and a fixed O2 concentration (air saturation) at pH 8.5 and 25°C, in the presence of 0.2 mM FAD to avoid apoprotein formation for wild-type hDAAO.

[6] = molecular target: T2, R120E hDAAO variant; test: Apparent kinetic parameters on D-amino acids (oxygen electrode), R120E hDAAO; assay type: biochemical; conditions: air saturation, 25°C, pH 8.5, 0.2 mM FAD
Experimental: as §2, §3

[7] = read-out: Benzoate Kd, first saturation phase
[8] = read-out: Benzoate Kd, second saturation phase

Row | SMILES | Kd [1, 7] [mM] | Kd [1, 8] [mM] | Kd ([2]; ref Murtas et al. (2017), read-out: Benzoate Kd, first saturation phase) [mM] | Kd ([2]; ref Murtas et al. (2017), read-out: Benzoate Kd, second saturation phase) [mM] | Kd ([2]; ref Murtas et al., 2017, read-out: Kd for the second phase of binding) [mM] | Kd [3, 7] [mM] | Kd [3, 8] [mM] | Kd ([3]; read-out: Kd for the second phase of binding) [mM] | apparent kcat [4] [s⁻¹] | Km [4] [µM] | Km [5] [µM] | apparent kcat [5] [s⁻¹] | Km [6] [µM] | apparent kcat [6] [s⁻¹]
1 | O=C(O)c1ccccc1 [Benzoate, benzoate] | 0.00027 ± 0.00012 | 6.21 | 0.00033 ± 4e-05 | 2.59 | 2.6 | 0.00016 ± 1e-05 | 7.98 | ~8 | – | – | – | – | – | –
2 | C[C@@H](N)C(=O)O [D-Ala, D-alanine] | – | – | – | – | – | – | – | – | 5.2 ± 0.1 | 1300 ± 200 | – | – | – | –
3 | N[C@H](CS)C(=O)O [D-Cys, D-cysteine] | – | – | – | – | – | – | – | – | 8.6 ± 0.2 | 600 ± 100 | 700 ± 100 | 15.6 ± 0.7 | 600 ± 100 | 9.9 ± 0.5
